Experimental data from ChEMBL document CHEMBL6103654, “Design, Biological Characterization, and Discovery of Capromorelin Derivatives as Oral Growth Hormone Secretagogue Receptor Type 1a Agonist for the Treatment of Growth Hormone Deficiency” (J Med Chem, 2025).
Calls of active or inactive are those of the source. No cut-off for these calls is given here.

What was measured:
Rattus norvegicus [1] = assay: In vivo agonist activity at GSHR in Sprague-Dawley rat assessed as increase in body weight at 10 to 100 mg/kg, po administered once daily for 14 days; assay type: functional, organism-based; settings: dose 10-100 mg/kg, time 14.0 day
Rattus norvegicus [2] = assay: Induction of growth hormone level in adult Sprague-Dawley rat blood at 0.2 mg/kg, po administered as single dose measured immediately by ELISA method (reference value: 12.6+/-4.4 ng/mL); assay type: functional
[3] = Tmax in male dog at 2 mg/kg, po administered as single dose measured after 4 hrs; assay type: ADME, organism-based, Canis lupus familiaris; settings: in vivo
[4] = Metabolic stability in mouse liver microsome assessed as intrinsic clearance at 1 uM measured upto 60 mins in presence of NADPH by LC-MS/MS analysis; assay type: ADME; settings: liver microsomes, read-out: CLH
[5] = Oral bioavailability in male dog at 2 mg/kg administered as single dose measured after 4 hrs; assay type: ADME, organism-based, Canis lupus familiaris; settings: in vivo
Rattus norvegicus [6] = assay: Induction of growth hormone level in Juvenile Sprague-Dawley rat blood at 0.5 mg/kg, po administered as single dose measured after 20 mins by ELISA method (reference value: 29.1+/-8.6 ng/mL); assay type: functional
Rattus norvegicus [7] = assay: Induction of growth hormone level in adult Sprague-Dawley rat blood at 0.1 mg/kg, po administered as single dose measured after 40 mins by ELISA method (reference value: 14.4+/-6.9 ng/mL); assay type: functional
[8] = Metabolic stability in mouse liver microsome assessed as half life at 1 uM measured upto 60 mins in presence of NADPH by LC-MS/MS analysis; assay type: ADME; settings: liver microsomes
[9] = Plasma protein binding in rat assessed as unbound fraction measured after 6 hrs by dialysis method; assay type: ADME, cell-free
CHO = assay: Agonist activity at monkey GHSR expressed in CHO cells at maximum concentration incubated for 60 min by FLIPR assay relative to control; assay type: cell-based; settings: Macaca mulatta, filed as agonist
[10] = AUC in male mouse at 2 mg/kg, po administered as single dose measured after 4 hrs; assay type: ADME, organism-based; settings: in vivo
[11] = Metabolic stability in dog liver microsome assessed as intrinsic clearance at 1 uM measured upto 60 mins in presence of NADPH by LC-MS/MS analysis; assay type: ADME, Canis lupus familiaris; settings: liver microsomes, read-out: CLH
[12] = Cmax in male monkey at 2 mg/kg, po administered as single dose measured after 4 hrs; assay type: ADME, organism-based, Macaca mulatta; settings: rhesus monkey, in vivo
[13] = Oral bioavailability in male Sprague-Dawley rat at 2 mg/kg administered as single dose measured after 4 hrs; assay type: ADME, organism-based; settings: in vivo
[14] = Cmax in male mouse at 2 mg/kg, po administered as single dose measured after 4 hrs; assay type: ADME, organism-based; settings: in vivo
[15] = Tmax in male mouse at 2 mg/kg, po administered as single dose measured after 4 hrs; assay type: ADME, organism-based; settings: in vivo
Rattus norvegicus [16] = assay: Induction of growth hormone level in Juvenile Sprague-Dawley rat blood at 0.5 mg/kg, po administered as single dose measured after 2 hrs by ELISA method (reference value: 26.5+/-7.3 ng/mL); assay type: functional
Rattus norvegicus [17] = assay: Induction of growth hormone level in Juvenile Sprague-Dawley rat blood at 0.5 mg/kg, po administered as single dose measured after 10 mins by ELISA method (reference value: 23.2+/-5.6 ng/mL); assay type: functional
[18] = Half life in male mouse at 1 mg/kg, iv administered as single dose measured after 4 hrs; assay type: ADME, organism-based; settings: in vivo
[19] = Metabolic stability in human liver microsome assessed as intrinsic clearance at 1 uM measured upto 60 mins in presence of NADPH by LC-MS/MS analysis; assay type: ADME; settings: liver microsomes, read-out: CLH
[20] = Half life in male monkey at 0.5 mg/kg, iv administered as single dose measured after 4 hrs; assay type: ADME, organism-based, Macaca mulatta; settings: rhesus monkey, in vivo
[21] = Clearance in male mouse plasma at 1 mg/kg, iv administered as single dose measured after 4 hrs; assay type: ADME, organism-based
[22] = Plasma protein binding in monkey assessed as unbound fraction measured after 6 hrs by dialysis method; assay type: ADME, cell-free, Macaca mulatta; settings: rhesus monkey
Rattus norvegicus [23] = assay: Induction of growth hormone level in Juvenile Sprague-Dawley rat blood at 0.1 mg/kg, po administered as single dose measured after 2 hrs by ELISA method (reference value: 26.5+/-7.3 ng/mL); assay type: functional
Rattus norvegicus [24] = assay: Induction of growth hormone level in Juvenile Sprague-Dawley rat blood at 0.1 mg/kg, po administered as single dose measured after 40 mins by ELISA method (reference value: 40.1+/-11.0 ng/mL); assay type: functional
[25] = Oral bioavailability in male monkey at 2 mg/kg administered as single dose measured after 4 hrs; assay type: ADME, organism-based, Macaca mulatta; settings: rhesus monkey, in vivo
Rattus norvegicus [26] = assay: Induction of growth hormone level in adult Sprague-Dawley rat blood by measuring AUC(0 to 40 mins) at 0.2 mg/kg, po administered as single dose by ELISA method (reference value: 7.0+/-1.7 ng/mL); assay type: functional, organism-based
Rattus norvegicus [27] = assay: Induction of growth hormone level in 4 week-old male Sprague-Dawley rat assessed as increase in body length at 2.5 mg/kg, po measured after 10 days; assay type: functional, organism-based; settings: time 10.0 day
[28] = Volume of distribution in male monkey at 0.5 mg/kg, iv administered as single dose measured after 4 hrs; assay type: ADME, organism-based, Macaca mulatta; settings: rhesus monkey, in vivo
Rattus norvegicus [29] = assay: Induction of growth hormone level in adult Sprague-Dawley rat blood at 0.2 mg/kg, po administered as single dose measured after 20 mins by ELISA method (reference value: 4.9+/-1.1 ng/mL); assay type: functional
Cytochrome P450 2C9 = Cytochrome P450 2C9 (Homo sapiens, UniProt P11712); assay: Inhibition of CYP2C9 in human liver microsome incubated for 5 min in presence of NADPH by UPLC-MS/MS analysis; assay type: ADME, microsomes
Rattus norvegicus [30] = assay: Induction of growth hormone level in 4 week-old female Sprague-Dawley rat assessed as increase in body length at 2.5 mg/kg, po measured after 10 days; assay type: functional, organism-based; settings: time 10.0 day
[31] = Elimination half life in male Sprague-Dawley rat at 2 mg/kg, po administered as single dose measured after 4 hrs; assay type: ADME, organism-based; settings: in vivo, read-out: beta t1/2 (converted)
[32] = Cmax in male Sprague-Dawley rat at 2 mg/kg, po administered as single dose measured after 4 hrs; assay type: ADME, organism-based; settings: in vivo
Rattus norvegicus [33] = assay: Induction of growth hormone level in Juvenile Sprague-Dawley rat blood at 0.5 mg/kg, po administered as single dose measured immediately by ELISA method (reference value: 28.5+/-8.7 ng/mL); assay type: functional

Chain of Cytochrome P450 2C9 (P11712 whole entry): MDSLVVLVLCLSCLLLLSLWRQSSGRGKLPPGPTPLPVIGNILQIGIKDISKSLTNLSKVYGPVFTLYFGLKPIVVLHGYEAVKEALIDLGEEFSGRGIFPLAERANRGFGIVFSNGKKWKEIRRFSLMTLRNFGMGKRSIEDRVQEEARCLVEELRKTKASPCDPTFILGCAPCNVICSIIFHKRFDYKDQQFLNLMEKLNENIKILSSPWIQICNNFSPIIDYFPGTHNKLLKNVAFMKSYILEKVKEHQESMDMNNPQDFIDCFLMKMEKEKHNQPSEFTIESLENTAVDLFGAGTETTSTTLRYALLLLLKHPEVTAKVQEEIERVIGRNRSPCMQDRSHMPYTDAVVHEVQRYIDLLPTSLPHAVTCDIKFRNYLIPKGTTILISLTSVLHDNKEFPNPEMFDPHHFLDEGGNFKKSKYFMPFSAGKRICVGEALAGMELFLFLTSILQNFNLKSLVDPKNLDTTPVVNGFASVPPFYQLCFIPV

Compound: CC(C)(N)C(=O)N[C@H](COCc1ccccc1)C(=O)N1CCC2=NN(C3CC3)C(=O)[C@]2(Cc2ccccc2)C1
- Activity (Rattus norvegicus [1]): Active
- Activity (Rattus norvegicus [2]): 22 ng/mL
- Tmax [3]: 25.2 min
- microsomal CLint at 1 µM [4]: 330 µL/min/mg
- bioavailability [5]: 43.6%
- Activity (Rattus norvegicus [6]): 223.2 ng/mL
- Activity (Rattus norvegicus [7]): 27.6 ng/mL
- half-life at 1 µM [8]: 4.2 min
- fraction unbound at 6 h [9]: 0.673
- Activity (CHO): 106%
- AUC at 4 h [10]: 0.0931 µg·h/mL
- microsomal CLint at 1 µM [11]: 134 µL/min/mg
- Cmax [12]: 0.0434 µg/mL
- bioavailability [13]: 16.7%
- Cmax [14]: 0.125 µg/mL
- Tmax [15]: 15 min
- Activity (Rattus norvegicus [16]): 34.4 ng/mL
- Activity (Rattus norvegicus [17]): 230.9 ng/mL
- half-life [18]: 16.2 min
- microsomal CLint at 1 µM [19]: 123 µL/min/mg
- half-life [20]: 46.8 min
- clearance [21]: 7.41 L/h/kg
- fraction unbound at 6 h [22]: 0.46
- Activity (Rattus norvegicus [23]): 36.7 ng/mL
- Activity (Rattus norvegicus [24]): 74.5 ng/mL
- F [25]: 15.88%
- AUC (Rattus norvegicus [26]): 62.6 ng·h/mL
- Activity (Rattus norvegicus [27]): Active
- Vd [28]: 2.36 L/kg
- Activity (Rattus norvegicus [29]): 73.2 ng/mL
- IC50 (Cytochrome P450 2C9): > 30 µM
- Activity (Rattus norvegicus [30]): Active
- half-life [31]: 166 min
- Cmax [32]: 0.156 µg/mL
- Activity (Rattus norvegicus [33]): 42.8 ng/mL
